Experimental data published in patent US5977373A, “Thiadiazolyl and oxadiazolyl phenyl oxazolidinone antibacterial agents” (Pharmacia & Upjohn Company, priority 1998, dated 1999).
Converted amounts (≈) assume the structure as drawn.

Experiments:
S. pneumoniae UC ® 9912 = test: In vitro minimum inhibitory concentration (MIC) by agar dilution, gram-positive bacteria (Table 1); format: cell-based; conditions: Streptococcus pneumoniae, UC9912
Description: (§1) The oxazolidinone antibacterial agents of this invention have useful activity against a variety of microorganisms. The in vitro activity of compounds of this invention can be assessed by standard testing procedures such as the determination of minimum inhibitory concentration (MIC) by agar dilution as described in "Methods for Dilution Antimicrobial Susceptibility Tests for Bacteria That Grow Aerobically" (MFT) published January 1983 by the National Committee for Clinical Laboratory Standards, 771 East Lancaster Avenue, Villanova, Pa. 19084, USA. The activity of selected compounds of this invention against Staphylococcus aureus and Streptococcus pneumoniae are shown in Table 1.

S. Aureus UC ® 9213 = test: as above; format: cell-based; conditions: Staphylococcus aureus, UC9213
Description: as §1

| MIC (S. pneumoniae UC ® 9912) [mg/L] | MIC (S. Aureus UC ® 9213) [mg/L] | SMILES |
| --- | --- | --- |
| 0.25 (≈ 0.592 µM) | 2 (≈ 4.73 µM) | CCOC(=O)Cc1nnc(-c2ccc(N3C[C@H](CNC(C)=O)OC3=O)cc2F)s1 [Example 25, (S)-Ethyl 5-[4-[5-[(acetylamino)methyl]-2-oxo-3-oxazolidinyl]-2-fluorophenyl]-1,3,4-thiadiazole-2-acetate] |
| 0.25 (≈ 0.661 µM) | 1 (≈ 2.64 µM) | CC(=O)NC[C@H]1CN(c2ccc(-c3nnc(C(C)C)s3)c(F)c2)C(=O)O1 [Example 48, (S)-N-[[3-[3-Fluoro-4-[5-(1-methylethyl)-1,3,4-thiadiazol-2-yl]phenyl]-2-oxo-5-oxazolidinyl]methyl]acetamide] |
| < 0.125 | 8 (≈ 19.6 µM) | CC(=O)NC[C@H]1CN(c2ccc(-c3nnc(CCC(N)=O)s3)c(F)c2)C(=O)O1 [Example 19, (S)-5-[4-[5-[(Acetylamino)methyl]-2-oxo-3-oxazolidinyl]-2-fluorophenyl]-1,3,4-thiadiazole-2-propanamide] |
| 0.25 (≈ 0.657 µM) | 2 (≈ 5.26 µM) | COCc1nnc(-c2ccc(N3C[C@H](CNC(C)=O)OC3=O)cc2F)s1 [Example 12, (S)-N-[[3-[3-Fluoro-4-[5-(methoxymethyl)-1,3,4-thiadiazol-2-yl]phenyl]-2-oxo-5-oxazolidinyl]methyl]acetamide] |
| 0.5 (≈ 1.21 µM) | 2 (≈ 4.83 µM) | CC(=O)NC[C@H]1CN(c2ccc(-c3nnc(S(C)(=O)=O)s3)c(F)c2)C(=O)O1 [Example 62, (S)-N-[[3-[3-Fluoro-4-[5-(methylsulfonyl)-1,3,4-thiadiazol-2-yl]phenyl]-2-oxo-5-oxazolidinyl]methyl]acetamide] |
| 0.5 (≈ 1.33 µM) | 2 (≈ 5.31 µM) | C/C=C/c1nnc(-c2ccc(N3C[C@H](CNC(C)=O)OC3=O)cc2F)s1 [Example 43, (S)-N-[[3-[3-Fluoro-4-[5-(1-propenyl)-1,3,4-thiadiazol-2-yl]phenyl]-2-oxo-5-oxazolidinyl]methyl]acetamide] |
| 0.25 (≈ 0.592 µM) | 2 (≈ 4.73 µM) | COC(=O)CCc1nnc(-c2ccc(N3C[C@H](CNC(C)=O)OC3=O)cc2F)s1 [Example 18, (S)-Methyl 5-[4-[5-[(acetylamino)methyl]-2-oxo-3-oxazolidinyl]-2-fluorophenyl]-1,3,4-thiadiazole-2-propanoate] |
| < 0.125 | 8 (≈ 19.6 µM) | CCOC(=O)c1nnc(-c2ccc(N3C[C@H](CNC(C)=O)OC3=O)cc2F)s1 [Example 27, (S)-Ethyl 5-[4-[5-[(acetylamino)methyl]-2-oxo-3-oxazolidinyl]-2-fluorophenyl]-1,3,4-thiadiazole-2-carboxylate] |
| 1 (≈ 2.75 µM) | > 16 | CC(=O)NC[C@H]1CN(c2ccc(-c3noc(C(N)=O)n3)c(F)c2)C(=O)O1 [Example 37, (S)-3-[4-[5-[(Acetylamino)methyl]-2-oxo-3-oxazolidinyl]-2-fluorophenyl]-1,2,4-oxadiazole-5-carboxamide] |
| 0.5 (≈ 1.32 µM) | 4 (≈ 10.5 µM) | CC(=O)NC[C@H]1CN(c2ccc(-c3nnc(NC=O)s3)c(F)c2)C(=O)O1 [Example 41, (S)-N-[[3-[3-Fluoro-4-[5-(formylamino)-1,3,4-thiadiazol-2-yl]phenyl]-2-oxo-5-oxazolidinyl]methyl]acetamide] |
| 8 (≈ 20.6 µM) | 16 (≈ 41.2 µM) | CC(=O)NC[C@H]1CN(c2ccc(-c3noc(C(F)(F)F)n3)c(F)c2)C(=O)O1 [Example 39, (S)-N-[[3-[3-Fluoro-4-[5-(trifluoromethyl)-1,2,4-oxadiazol-3-yl]phenyl]-2-oxo-5-oxazolidinyl]methyl]acetamide] |
| 0.25 (≈ 0.659 µM) | > 16 | CC(=O)NC[C@H]1CN(c2ccc(-c3nnc(CCN)s3)c(F)c2)C(=O)O1 [Example 44, (S)-N-[[3-[4-[5-(2-Aminoethyl)-1,3,4-thiadiazol-2-yl]-3-fluorophenyl]-2-oxo-5-oxazolidinyl]methyl]acetamide] |
| < 0.5 | 4 (≈ 9.34 µM) | CC(=O)NC[C@H]1CN(c2ccc(-c3nnc(CS(C)(=O)=O)s3)c(F)c2)C(=O)O1 [Example 69, (S)-N-[[3-[3-Fluoro-4-[5-[(methylsulfonyl)methyl]-1,3,4-thiadiazol-2-yl]phenyl]-2-oxo-5-oxazolidinyl]methyl]acetamide] |
| 0.25 (≈ 0.659 µM) | 0.5 (≈ 1.32 µM) | CC(=O)NC[C@H]1CN(c2ccc(-c3nnc(C(N)=O)s3)c(F)c2)C(=O)O1 [Example 2, (S)-5-[4-[5-[(Acetylamino)methyl]-2-oxo-3-oxazolidinyl]-2-fluorophenyl]-1,3,4-thiadiazole-2-carboxamide] |
| 4 (≈ 12 µM) | 16 (≈ 47.9 µM) | CC(=O)NC[C@H]1CN(c2ccc(-c3noc(C)n3)c(F)c2)C(=O)O1 [Example 35, (S)-N-[[3-[3-Fluoro-4-(5-methyl-1,2,4-oxadiazol-3-yl)phenyl]-2-oxo-5-oxazolidinyl]methyl]acetamide] |
| 0.5 (≈ 1.32 µM) | 2 (≈ 5.29 µM) | CC(=O)NC[C@H]1CN(c2ccc(-c3nnc(C(C)=O)s3)c(F)c2)C(=O)O1 [Example 59, (S)-N-[[3-[4-(5-Acetyl-1,3,4-thiadiazol-2-yl)-3-fluorophenyl]-2-oxo-5-oxazolidinyl]methyl]acetamide] |

The remaining lines, values behind:

| SMILES | MIC (S. pneumoniae UC ® 9912) [mg/L] | MIC (S. Aureus UC ® 9213) [mg/L] |
| --- | --- | --- |
| COCCc1nnc(-c2ccc(N3C[C@H](CNC(C)=O)OC3=O)cc2F)s1 [Example 73, (S)-N-[[3-[3-Fluoro-4-[5-(2-methoxyethyl)-1,3,4-thiadiazol-2-yl]phenyl]-2-oxo-5-oxazolidinyl]methyl]acetamide] | < 0.5 | 2 (≈ 5.07 µM) |
| CON=C(C)CCc1nnc(-c2ccc(N3C[C@H](CNC(C)=O)OC3=O)cc2F)s1 [Example 65, (S)-N-[[3-[3-Fluoro-4-[5-[3-(methoxyimino)butyl]-1,3,4-thiadiazol-2-yl]phenyl]-2-oxo-5-oxazolidinyl]methyl]acetamide] | 2 (≈ 4.59 µM) | 8 (≈ 18.4 µM) |
| CC(=O)NC[C@H]1CN(c2ccc(-c3nnc(CCCN)s3)c(F)c2)C(=O)O1 [Example 57, (S)-N-[[3-[4-[5-(3-Aminopropyl)-1,3,4-thiadiazol-2-yl]-3-fluorophenyl]-2-oxo-5-oxazolidinyl]methyl]acetamide] | 0.5 (≈ 1.27 µM) | 16 (≈ 40.7 µM) |
| CC(=O)NC[C@H]1CN(c2ccc(-c3nnc(CCCl)s3)c(F)c2)C(=O)O1 [Example 42, (S)-N-[[3-[4-[5-(2-Chloroethyl)-1,3,4-thiadiazol-2-yl]-3-fluorophenyl]-2-oxo-5-oxazolidinyl]methyl]acetamide] | < 0.125 | 1 (≈ 2.51 µM) |
| CC(=O)NC[C@H]1CN(c2ccc(-c3nsc(C(N)=O)n3)c(F)c2)C(=O)O1 [Example 33, (S)-3-[4-[5-[(Acetylamino)methyl]-2-oxo-3-oxazolidinyl]-2-fluorophenyl]-1,2,4-thiadiazole-5-carboxamide] | 2 (≈ 5.27 µM) | 16 (≈ 42.2 µM) |
| CC(=O)NC[C@H]1CN(c2ccc(-c3nnc(CCCCl)s3)c(F)c2)C(=O)O1 [Example 60, (S)-N-[[3-[4-[5-(3-Chloropropyl)-1,3,4-thiadiazol-2-yl]-3-fluorophenyl]-2-oxo-5-oxazolidinyl]methyl]acetamide] | 0.5 (≈ 1.21 µM) | 2 (≈ 4.84 µM) |
| CCCc1nnc(-c2ccc(N3C[C@H](CNC(C)=O)OC3=O)cc2F)s1 [Example 5, (S)-N-[[3-[3-Fluoro-4-(5-propyl-1,3,4-thiadiazol-2-yl)phenyl]-2-oxo-5-oxazolidinyl]methyl]acetamide] | 0.25 (≈ 0.661 µM) | 1 (≈ 2.64 µM) |
| CC(=O)NCCc1nnc(-c2ccc(N3C[C@H](CNC(C)=O)OC3=O)cc2F)s1 [Example 45, (S)-N-[[3-[4-[5-[2-(Acetylamino)ethyl]-1,3,4-thiadiazol-2-yl]-3-fluorophenyl]-2-oxo-5-oxazolidinyl]methyl]acetamide] | 0.5 (≈ 1.19 µM) | 16 (≈ 38 µM) |
| CC(=O)NCc1nnc(-c2ccc(N3C[C@H](CNC(C)=O)OC3=O)cc2F)s1 [Example 49, (S)-N-[[5-[4-[5-[(Acetylamino)methyl]-2-oxo-3-oxazolidinyl]-2-fluorophenyl]-1,3,4-thiadiazol-2-yl]methyl]acetamide] | 0.25 (≈ 0.614 µM) | 16 (≈ 39.3 µM) |
| CC(=O)NC[C@H]1CN(c2ccc(-c3nnc(CNC(=O)COC(C)=O)s3)c(F)c2)C(=O)O1 [Example 66] | < 0.5 | 16 (≈ 34.4 µM) |
| CC(=O)NC[C@H]1CN(c2ccc(-c3ncns3)c(F)c2)C(=O)O1 [Example 34, (S)-N-[[3-[3-Fluoro-4-(1,2,4-thiadiazol-5-yl)phenyl]-2-oxo-5-oxazolidinyl]methyl]acetamide] | 0.25 (≈ 0.743 µM) | 1 (≈ 2.97 µM) |
| CC(=O)NC[C@H]1CN(c2ccc(-c3nnc(CCC(C)O)s3)c(F)c2)C(=O)O1 (stereo partly drawn) [Example 17, (5S)-N-[[3-[3-Fluoro-4-[5-(3-hydroxybutyl)-1,3,4-thiadiazol-2-yl]phenyl]-2-oxo-5-oxazolidinyl]methyl]acetamide] | 0.25 (≈ 0.612 µM) | 2 (≈ 4.9 µM) |
| CC(=O)NCCCc1nnc(-c2ccc(N3C[C@H](CNC(C)=O)OC3=O)cc2F)s1 [Example 58, (S)-N-[3-[5-[4-[5-[(Acetylamino)methyl]-2-oxo-3-oxazolidinyl]-2-fluorophenyl]-1,3,4-thiadiazol-2-yl]propyl]acetamide] | 0.25 (≈ 0.574 µM) | 8 (≈ 18.4 µM) |
| CC(=O)NC[C@H]1CN(c2ccc(-c3ncon3)c(F)c2)C(=O)O1 [Example 36, (S)-N-[[3-[3-Fluoro-4-(1,2,4-oxadiazol-3-yl)phenyl]-2-oxo-5-oxazolidinyl]methyl]acetamide] | 1 (≈ 3.12 µM) | 4 (≈ 12.5 µM) |
| CSCc1nnc(-c2ccc(N3C[C@H](CNC(C)=O)OC3=O)cc2F)s1 [Example 21, (S)-N-[[3-[3-Fluoro-4-[5-[(methylthio)methyl]-1,3,4-thiadiazol-2-yl]phenyl]-2-oxo-5-oxazolidinyl]methyl]acetamide] | 0.25 (≈ 0.631 µM) | 1 (≈ 2.52 µM) |
| CC(=O)NC[C@H]1CN(c2ccc(-c3ncno3)c(F)c2)C(=O)O1 [Example 40, (S)-N-[[3-[3-Fluoro-4-(1,2,4-oxadiazol-5-yl)phenyl]-2-oxo-5-oxazolidinyl]methyl]acetamide] | 0.5 (≈ 1.56 µM) | 2 (≈ 6.24 µM) |
